Two molecules from US11149062B2, “HDAC inhibitors and methods of treatment using the same” (UWM Research Foundation, Inc., priority 2015, dated 2021) can be followed below.

A short description of one series: in vivo. The following applies: BALB/c, mouse, in vivo, ip. From the text:
BALB/c mice were purchased from The Jackson Laboratory (Bar Harbor, Me.) and used between 7 and 10 weeks of age. Mice were housed in a conventional animal vivarium and were given free access to food and water. All studies and procedures were approved by the Animal Care and Use Committee of the University of Wisconsin, Milwaukee.
Each animal was initially weighed using a digital scale and then intraperitoneally (IP) injected with the compounds (listed in Table 2). A single mouse was given a single IP dose of 200 mg/kg, body weight, a second mouse received a dose of 100 mg/kg and a third mouse received a single dose of 50 mg/kg. The mice were observed and weighed every other day for a period of 2 weeks. They were euthanized if they lost more than 20% of their body weight or if there were other signs of significant toxicity. […] This process was repeated until a tolerated dose was found, and the MTD value was determined.
To determine the MTD in vivo, the compounds listed above were injected intraperitoneally into BALB/c mice and morbidity and mortality were monitored over two weeks.

The target in a further series is T1, Recombinant human HDAC6 (Homo sapiens, UniProt Q9UBN7).
T1 construct: purchased BPS Bioscience Inc
T1 sequence (Q9UBN7 1-1215): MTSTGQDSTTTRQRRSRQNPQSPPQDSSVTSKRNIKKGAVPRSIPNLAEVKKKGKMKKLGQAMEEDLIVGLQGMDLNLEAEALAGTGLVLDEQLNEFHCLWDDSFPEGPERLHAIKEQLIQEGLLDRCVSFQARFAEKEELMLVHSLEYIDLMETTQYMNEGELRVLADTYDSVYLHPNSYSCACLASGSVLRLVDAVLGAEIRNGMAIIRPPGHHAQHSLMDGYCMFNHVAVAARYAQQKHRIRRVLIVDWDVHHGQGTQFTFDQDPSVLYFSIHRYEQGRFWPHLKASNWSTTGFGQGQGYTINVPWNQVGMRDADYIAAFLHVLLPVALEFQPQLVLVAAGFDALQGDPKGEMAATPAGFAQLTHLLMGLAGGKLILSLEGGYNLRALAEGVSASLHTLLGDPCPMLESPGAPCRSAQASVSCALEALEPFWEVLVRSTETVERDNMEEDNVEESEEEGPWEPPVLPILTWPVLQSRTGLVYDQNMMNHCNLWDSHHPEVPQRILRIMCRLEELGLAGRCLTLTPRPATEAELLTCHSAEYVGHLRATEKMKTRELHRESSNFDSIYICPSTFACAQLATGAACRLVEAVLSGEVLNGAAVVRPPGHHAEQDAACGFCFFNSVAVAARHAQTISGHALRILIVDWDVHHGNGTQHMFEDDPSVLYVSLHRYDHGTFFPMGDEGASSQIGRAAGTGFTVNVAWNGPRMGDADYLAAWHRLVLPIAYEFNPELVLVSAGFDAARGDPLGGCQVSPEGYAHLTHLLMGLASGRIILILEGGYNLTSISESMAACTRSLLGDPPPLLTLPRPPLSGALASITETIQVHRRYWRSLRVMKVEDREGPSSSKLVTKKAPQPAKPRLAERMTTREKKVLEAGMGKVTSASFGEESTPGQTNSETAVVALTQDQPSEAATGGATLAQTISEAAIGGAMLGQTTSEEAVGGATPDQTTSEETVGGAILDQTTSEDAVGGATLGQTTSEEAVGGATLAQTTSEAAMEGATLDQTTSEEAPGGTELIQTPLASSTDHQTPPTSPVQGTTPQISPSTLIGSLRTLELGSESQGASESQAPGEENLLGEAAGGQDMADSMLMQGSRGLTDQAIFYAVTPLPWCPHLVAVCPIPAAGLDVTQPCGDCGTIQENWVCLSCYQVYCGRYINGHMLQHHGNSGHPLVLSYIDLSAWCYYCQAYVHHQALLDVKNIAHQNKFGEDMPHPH
In words: HDAC-Glo I/II assay, HDAC6. The class given is biochemical. The procedure: The purified compounds of all fragments and natural product derivatives were evaluated for inhibitory effects on three different classes of HDAC proteins (class I, IIa, and IIb). […] All activity was determined by using a fluorescence-based in vitro assay. Class I HDAC proteins that were evaluated were HDAC1, HDAC2, HDAC3, HDAC8, HDAC4, and HDAC6. Class IIa HDAC protein were HDAC4 and the Class IIb HDAC protein were HDAC6.
HDAC-Glo™ I/II Assay and Screening System (Promega) was used to determine the HDAC inhibitory activity. […]
All test compounds were firstly dissolved in DMSO to make 10 mM stock solution. […] Finally, the plate was incubated at room temperature for an additional 30 minutes before the luminescence was measured on a Synergy HT plate reader (Bio-Tek). The luminescence intensity data were analyzed using GraphPad Prism 5 (GraphPad Software). In the absence of any test compound, the luminescence intensity (I100) in each data set was defined as 100% activity. In the absence of both of HDAC enzymes and test compound, the luminescence intensity (I0) in each data set was defined as 0% activity. The relative activity (%) in the presence of each compound was calculated according to the following equation: % activity=(I−I0)/(I100−I0), where I=the luminescence intensity if a compound is present in the reaction. […]

For a further series, the system named is HCT-116 (colon cancer). In words: MTT antiproliferative assay, HCT-116. The class given is cell-based. The following applies: Homo sapiens, HCT-116; MTT, 48 h; read-out: Antiproliferative Activity GI50, Colon HCT-116. The procedure:
Briefly, the tumor cells (1×10^4 cells/well) were seeded in 96-well microtiter plates and incubated for 24 h at 37° C. Following incubation, the media was replaced with fresh media containing the above compounds at concentrations ranging from 1 μM to 1 pM diluted in DMSO and incubated for an additional 48 h. Drugs were run in duplicate or triplicate and control cells received fresh media with DMSO concentration equivalent to the treatment groups. […] After aspirating the culture medium, 200 μL of DMSO was added to dissolve the precipitate and the resulting solution was measured for absorbance at 570 nm with a reference wavelength of 690 nm using a microplate reader (Infinite M200 Pro TECAN).
Background: Tetrazolium dyes change colour on reduction, which living cells bring about.

Usually GI50 stands for the concentration giving 50% growth inhibition. The molecule `COC(=O)[C@H]1CSSCC/C=C/C(O)CC(=O)N[C@H](CCSC)C(=O)N1` (stereo partly drawn) [TDF3m, Methyl (4S,7R,12E)-11-hydroxy-7-[2-(methylsulfanyl)ethyl]-6,9-dioxo-1,2-dithia-5,8-diazacyclopentadec-12-ene-4-carboxylate] registered an MTD at 2 weeks in “in vivo” greater than 200 mg/kg. In addition, the “inhibitory activity toward HDAC6 (in words)” value on Recombinant human HDAC6 is reported as “no inhibitory activity”. Besides, the GI50 in the series with HCT-116 (colon cancer) amounted to 200 nM.

In “in vivo”, `CSCC[C@H]1NC(=O)CC(O)/C=C/CCSSC[C@H](C(=O)O)NC1=O` (stereo partly drawn) [TDF3, (4S,7R,12E)-11-hydroxy-7-[2-(methylsulfanyl)ethyl]-6,9-dioxo-1,2-dithia-5,8-diazacyclopentadec-12-ene-4-carboxylic acid] showed an MTD at 2 weeks greater than 200 mg/kg. Further, the “inhibitory activity toward HDAC6 (in words)” value at Recombinant human HDAC6 is recorded as “no inhibitory activity”. Further, in the series with HCT-116 (colon cancer), the GI50 turned out to be 300 nM.
